Assay results taken from patent US20230047816A1 (priority 2018, published 2023).
“Also recorded” adds a separate entry of the source.

Key:
influenza A H1N1 in MDCK = format: cell-based; details: 0, 0.1 μM, 1 μM, 10 μM and 100 μM
[1] = system: iPSC-derived neural precursor cells (NPC) from CLN7 patients; test: Perinuclear mitochondria in iPSC-derived neural precursor cells from CLN7 patients; format: cell-based; details: FIG. 16
[2] = system: mouse primary cortical neurons; test: Mitochondrial ROS (MitoSox) upon excitotoxic stimuli; format: cell-based; details: NMDA and glutamate excitotoxic models; inhibitor 0.01 μM
Method: (§1) To directly test the ability of the PFKFB3 inhibitor, AZ67 and Compound 1, to protect against the damage caused by excitotoxic stimuli, mouse primary cortical neurons were subjected to a short-term exposure to NMDA or glutamate (100 μM for 10 minutes), a well-known excitotoxic stimuli (Almeida and Bolahos, 2001). For NMDAR activation, neurons at 8 days in vitro were incubated with 100 μM glutamate (plus 10 μM glycine) or 100 μM NMDA (plus 10 μM glycine) for 10 minutes. Neurons were then washed and further incubated in culture medium with the PFKFB3 inhibitors for 24 hours. A colorimetric NADP/NADPH assay kit (Abcam) was used. Cells were resuspended in 500 μl of NADP/NADPH extraction buffer, vortexed and centrifuged at 14,000 rpm for 5 minutes to remove insoluble material. The supernatant was used for NADPH +plus NADP+ measurement. NADPH was determined in 200 μl of the supernatant, after heatinged […] 60° C. for 30 minutes to decompose NADP+. Actual NADP and NADPH+ concentrations were calculated by extrapolating values to a NADPH standard curve (0-100 pmol/well).
Mitochondrial ROS was detected using the fluorescent probe MitoSox™ (Life Technologies). […] MitoSox™ fluorescence was assessed by flow cytometry and expressed in arbitrary units.

Cln7Aex2 mice = Cln7Aex2 mice in vivo (cortex pathology, hindlimb paralysis)
primary neurons [3] = test: Mitochondrial ROS in NMDA and glutamate excitotoxic models; format: cell-based; details: 0.01 μM, triggered by NMDA and glutamate, FIG. 4B
[4] = system: mouse primary cortical neurons; test: Apoptosis upon glutamate or NMDA (annexin V+/7AAD-); format: cell-based; details: for prevention of apoptotic neuronal death: inhibitor 0.01 μM
Method: as §1
To show this, neurons were treated with glutamate of NMDA, and apoptosis assessed by annexin V+/7AAD− staining using flow cytometry, as described above.

[5] = system: neurons from Cln7 knock out (KO) mice; test: In vitro model of Batten disease, glycolytic flux; format: cell-based, mouse; details: 10 nM, 24 hours
Method: Primary cultures of C57BL/6J WT and Cln7Δex2 mice cortical neurons were prepared from fetal animals of 14.5 days of gestation, seeded at 1.8·10^5 cells/cm2 in plastic plates coated with poly-D-lysine […] and incubated in Neurobasal (Life Technologies) supplemented with 2 mM glutamine, 5 mM of glucose, 0.25 mM pyruvate and 2% B27 supplement (Life Technologies). Cells were incubated at 37° C. in a humidified 5% CO2-containing atmosphere. At 72 hours after plating, medium was replaced using Neurobasal (Life Technologies) supplemented with 2 mM glutamine, 5 mM glucose, 0.25 mM pyruvate and 2% B27 supplement (Life Technologies) minus antioxidants (MAO; i.e., lacking vitamin E, vitamin E acetate, superoxide dismutase, catalase, and glutathione). Six days after the plating medium was replaced again. Cells were used at day 9.
Glycolytic flux was measured in 8 cm2 flasks of adherent cells at 60-70% confluence containing a central microcentrifuge tube with 1 ml H2O for 3H2O equilibration. […]. […] Glycolytic flux was measured by assaying the rate of 3H2O production from [3-3H]glucose by incubating cells with 5μ Ci D-[3-3H]glucose in KRPG buffer per flask for 120 min, as previously described [Vicente-Gutierrez, C. et al. Astrocytic mitochondrial ROS modulate brain metabolism and mouse behavior. […] The 3H2O was then measured by liquid scintillation counting (Tri-Carb 4810 TR, PerkinElmer). […]

[6] = system: mouse primary cortical neurons; test: Apoptosis of neurons induced by NMDA and glutamate; format: cell-based
primary neurons [7] = test: NADPH/NADP ratio under excitotoxic conditions induced by glutamate; format: cell-based; details: 0.01 μM, FIG. 4A
[8] = Cln7Aex2 mice in vivo, FIGS. 15A-15C

Cc1noc(C)c1Cn1cc(C#N)c2cc(Oc3ccc(NC(=O)[C@@H]4CCCN4)cc3)ccc21 [AZ67, (2S)-N-[4-({3-cyano-1-[(3,5-dimethyl-1,2-oxazol-4-yl)methyl]-1H-indol-5-yl}oxy)phenyl]pyrrolidine-2-carboxamide]
antiviral activity (anti-HA immunostain) (influenza A H1N1 in MDCK): demonstrate antiviral activity | loss of perinuclear mitochondria [1]: rectified the loss of perinuclear mitochondria | increase in mitochondrial ROS [2]: significantly prevented the increase in mitochondrial ROS; also recorded: prevent mitochondrial ROS increase | accumulation of SCMAS in the cortex (Cln7Aex2 mice; [8]): prevented the accumulation | accumulation of lipofuscin in the cortex (Cln7Aex2 mice; [8]): prevented the accumulation | accumulation of reactive astroglia in the cortex (Cln7Aex2 mice; [8]): prevented the accumulation | hindlimb paralysis (Cln7Aex2 mice; Cln7Aex2 mice, FIG. 15D): prevented | increase in mitochondrial ROS (primary neurons [3]): significantly prevented | protection from apoptosis ([4]; NMDA and glutamate): protect mouse primary cortical neurons from apoptosis | prevention of apoptotic neuronal death ([4]; NMDA): 90% | prevention of apoptotic neuronal death ([4]; glutamate): 76% | rate of glycolysis (glycolytic flux) [5]: reduce the excessive glycolysis to normal levels | apoptotic neuronal death increased by glutamate and NMDA ([6]; FIG. 5): significantly prevented | neuroprotection under PFK1-M overexpression ([6]; PFK1-M overexpression, FIGS. 6B and 6C): abolish the neuroprotection | protection of mouse primary cortical neurons from apoptosis ([6]; apoptosis induced by NMDA and glutamate, FIG. 6A): protect | NADPH/NADP ratio (primary neurons [7]): restore NADPH/NADP ratio
